{"source": "patent US20120034193A1", "about": "“TREATMENT OF NEUROTROPHIC FACTOR MEDIATED DISORDERS” (priority 2009, published 2012)", "key": {"[1]": {"tested_on": "Rat dopaminergic neurones", "assay": "TH positive neurones and neurite outgrowth after MPP+ exposure", "format": "cell-based", "conditions": "10 μM from day 6, MPP+ 2 μM day 8 for 48 h", "method": "(§1) Rat dopaminergic neurones were prepared using a slightly modified previously described method (Brouard et al., Journal of Neuroscience, 1992, 12, pp. 1409-1415). On day 6 the culture medium was replaced with fresh medium or fresh medium containing smilagenin (10 μM) or vehicle (DMSO, 0.25%). On day 8, MPP^+ (2 μM) or vehicle (saline) was added and 48 h later dopaminergic neurones were stained and the concentration of GDNF in the culture medium, neuronal damage and neurite outgrowth were assessed."}, "GDNF": {"tested_on": "GDNF", "assay": "GDNF in culture medium of rat dopaminergic neurones exposed to MPP+", "format": "cell-based", "conditions": "10 μM from day 6, MPP+ 2 μM day 8 for 48 h; MPP+ alone 2.7 ± 0.5", "method": "as §1"}, "Transporter, Adenosine": {"tested_on": "Transporter, Adenosine", "assay": "Binding assay", "design": "species or system Guinea pig", "conditions": "smilagenin 1 μM", "method": "(§2) The receptor binding was investigated using the following method: Sarsasapogenin was incubated with tissue or cell homogenate that expressed the receptor of interest and a known concentration a radiolabelled compound with affinity for the receptor of interest. After the incubation period the non-bound radiolabelled compound was removed and the amount of specific binding was quantified. The amount of specific binding in the presence and absence of sarsasapogenin were compared and the percent inhibition of the binding of the radiolabelled compound by sarsasapogenin was calculated. The source of the receptor, the incubation conditions, the radiolabelled compound used varied depending on each specific assay.\n(§3) Using the same methods as described above, the binding of smilagenin (1 μM) to the receptors listed in Table 2 below, and the effect of smilagenin on the activity of the enzymes listed in Table 2 below, were investigated."}, "[2]": {"target": "5-Hydroxytryptamine, 5-HT4 (Cavia porcellus, UniProt O70528)", "assay": "Binding assay", "design": "species or system Guinea pig", "conditions": "smilagenin 1 μM", "method": "as §2, §3"}, "[3]": {"tested_on": "Atrial Natriuretic Factor", "assay": "Binding assay", "design": "species or system Guinea pig", "conditions": "smilagenin 1 μM", "method": "as §2, §3"}, "BDNF": {"tested_on": "BDNF", "assay": "BDNF protein in culture medium of rat cortical neurones under basal conditions", "format": "cell-based", "conditions": "10 μM, day 8 to day 12, basal culture; control 3.66 ± 0.05", "method": "Rat cortical neurones were cultured by modification of a method previously described (Eckenstein and Sofroniew, Journal of Neuroscience, 1983, 3, pp. 2286-2291). On day 8, the culture medium was changed to a medium containing vehicle (DMSO, 0.5%) or smilagenin (10 μM). On day 12 the concentration of BDNF in the culture medium, was measured."}, "[4]": {"tested_on": "dopamine transporter (DAT)", "assay": "Striatal DAT level in MPTP-lesioned mice ([I^125]-RTI binding), 60 days", "format": "in vivo, C57b1/6 RJ mice", "conditions": "10 mg/kg/day oral, control 74.4, MPTP 23.4", "method": "Seven-week old male C57b1/6 RJ mice (C57 mice) received daily injections 1-methyl-4-phenyl-1,2,3,6-tetrahydropyridine (MPTP, 25 mg/kg/day, i.p., for 5 consecutive days) and oral administration of smilagenin (10 mg/kg/day) or vehicle (hydroxylpropylmethylcellulose, HPMC 0.5% w/v containing tween-80 0.2% v/v) for 60 days after which time their brains were removed for quantification of striatal levels of GDNF and BDNF using an ELISA and of dopamine transporter (DAT) levels using [I^125]-RTI binding. DAT is a marker for neuronal damage to dopaminergic neurones."}, "[5]": {"target": "Nicotinic Acetylcholine α7, Bungarotoxin (Rattus norvegicus, UniProt Q05941)", "sequence (Q05941 23-502)": "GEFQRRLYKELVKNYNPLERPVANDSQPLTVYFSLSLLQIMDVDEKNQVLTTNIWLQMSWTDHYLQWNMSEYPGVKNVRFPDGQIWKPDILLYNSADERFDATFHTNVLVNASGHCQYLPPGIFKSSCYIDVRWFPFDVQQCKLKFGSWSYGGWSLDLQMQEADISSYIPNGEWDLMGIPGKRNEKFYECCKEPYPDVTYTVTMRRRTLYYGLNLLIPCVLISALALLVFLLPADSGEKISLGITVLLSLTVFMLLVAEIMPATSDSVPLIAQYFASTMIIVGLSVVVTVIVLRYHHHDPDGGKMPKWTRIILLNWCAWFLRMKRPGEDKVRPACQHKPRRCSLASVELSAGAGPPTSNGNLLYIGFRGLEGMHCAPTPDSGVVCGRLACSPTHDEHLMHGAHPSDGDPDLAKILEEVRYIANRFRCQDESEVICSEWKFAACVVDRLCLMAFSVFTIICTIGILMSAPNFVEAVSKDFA", "assay": "Binding assay", "conditions": "smilagenin 1 μM"}, "Oestrogen (Erβ)": {"target": "T1, Oestrogen (Erβ) (Homo sapiens, UniProt Q92731)", "T1 construct": "host or cells: tissue or cell homogenate (not specified)", "T1 sequence (Q92731 whole entry)": "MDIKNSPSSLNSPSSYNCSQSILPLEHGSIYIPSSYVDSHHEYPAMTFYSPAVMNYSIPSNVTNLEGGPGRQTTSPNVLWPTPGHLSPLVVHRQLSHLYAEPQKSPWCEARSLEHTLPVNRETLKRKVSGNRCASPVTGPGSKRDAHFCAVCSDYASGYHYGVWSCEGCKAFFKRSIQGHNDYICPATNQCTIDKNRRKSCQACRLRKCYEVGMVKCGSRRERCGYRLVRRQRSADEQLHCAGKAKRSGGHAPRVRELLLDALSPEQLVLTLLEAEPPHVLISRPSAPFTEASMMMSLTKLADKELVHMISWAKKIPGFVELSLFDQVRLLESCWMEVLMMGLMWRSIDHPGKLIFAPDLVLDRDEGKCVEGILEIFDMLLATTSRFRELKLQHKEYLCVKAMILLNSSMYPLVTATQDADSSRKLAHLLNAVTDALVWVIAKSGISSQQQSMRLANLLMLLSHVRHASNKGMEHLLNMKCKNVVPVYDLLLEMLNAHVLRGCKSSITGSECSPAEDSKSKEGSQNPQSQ", "assay": "Binding assay", "conditions": "smilagenin 1 μM", "summary_of_the_method": "(§4)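 Radioligand competition binding: receptor-expressing tissue or cell homogenate was incubated with a known concentration of radiolabelled ligand plus test compound at 1 μM. Unbound label was removed and specific binding quantified; percent inhibition was calculated against binding without compound. Receptor source, radioligand and incubation conditions differed per assay.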"}, "Adensonine A3": {"target": "Adensonine A3 (Homo sapiens, UniProt P0DMS8)", "sequence (P0DMS8 whole entry)": "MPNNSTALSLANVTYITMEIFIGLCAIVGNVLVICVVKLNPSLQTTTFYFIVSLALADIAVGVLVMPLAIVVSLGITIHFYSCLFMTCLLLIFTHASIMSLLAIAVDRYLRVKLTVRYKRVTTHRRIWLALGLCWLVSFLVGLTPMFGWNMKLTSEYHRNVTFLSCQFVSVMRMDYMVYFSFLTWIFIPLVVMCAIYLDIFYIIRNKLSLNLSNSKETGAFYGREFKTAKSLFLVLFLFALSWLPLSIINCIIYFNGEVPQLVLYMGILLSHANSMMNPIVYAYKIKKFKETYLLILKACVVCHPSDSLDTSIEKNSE", "assay": "Binding assay", "conditions": "smilagenin 1 μM", "summary_of_the_method": "as §4"}, "Bradykinin B1": {"target": "Bradykinin B1 (Homo sapiens, UniProt P46663)", "assay": "Binding assay", "conditions": "smilagenin 1 μM", "summary_of_the_method": "as §4"}, "Endothelin ETB": {"target": "Endothelin ETB (Homo sapiens, UniProt P24530)", "assay": "Binding assay", "conditions": "smilagenin 1 μM", "summary_of_the_method": "as §4"}, "Neuropeptide Y Y1": {"target": "Neuropeptide Y Y1 (Homo sapiens, UniProt P25929)", "sequence (P25929 whole entry)": "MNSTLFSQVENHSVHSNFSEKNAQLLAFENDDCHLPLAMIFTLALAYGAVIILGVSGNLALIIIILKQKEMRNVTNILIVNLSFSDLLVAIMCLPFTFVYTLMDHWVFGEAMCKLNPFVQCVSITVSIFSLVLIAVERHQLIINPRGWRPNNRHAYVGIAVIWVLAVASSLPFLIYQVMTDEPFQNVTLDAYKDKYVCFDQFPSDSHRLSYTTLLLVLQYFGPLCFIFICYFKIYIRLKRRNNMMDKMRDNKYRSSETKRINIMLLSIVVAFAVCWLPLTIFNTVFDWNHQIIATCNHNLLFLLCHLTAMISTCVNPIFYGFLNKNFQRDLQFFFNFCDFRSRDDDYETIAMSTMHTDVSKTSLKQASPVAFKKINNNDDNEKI", "assay": "Binding assay", "conditions": "smilagenin 1 μM", "summary_of_the_method": "as §4"}, "Potassium Channel HERG": {"target": "Potassium Channel HERG (Homo sapiens, UniProt Q12809)", "sequence (Q12809 whole entry)": "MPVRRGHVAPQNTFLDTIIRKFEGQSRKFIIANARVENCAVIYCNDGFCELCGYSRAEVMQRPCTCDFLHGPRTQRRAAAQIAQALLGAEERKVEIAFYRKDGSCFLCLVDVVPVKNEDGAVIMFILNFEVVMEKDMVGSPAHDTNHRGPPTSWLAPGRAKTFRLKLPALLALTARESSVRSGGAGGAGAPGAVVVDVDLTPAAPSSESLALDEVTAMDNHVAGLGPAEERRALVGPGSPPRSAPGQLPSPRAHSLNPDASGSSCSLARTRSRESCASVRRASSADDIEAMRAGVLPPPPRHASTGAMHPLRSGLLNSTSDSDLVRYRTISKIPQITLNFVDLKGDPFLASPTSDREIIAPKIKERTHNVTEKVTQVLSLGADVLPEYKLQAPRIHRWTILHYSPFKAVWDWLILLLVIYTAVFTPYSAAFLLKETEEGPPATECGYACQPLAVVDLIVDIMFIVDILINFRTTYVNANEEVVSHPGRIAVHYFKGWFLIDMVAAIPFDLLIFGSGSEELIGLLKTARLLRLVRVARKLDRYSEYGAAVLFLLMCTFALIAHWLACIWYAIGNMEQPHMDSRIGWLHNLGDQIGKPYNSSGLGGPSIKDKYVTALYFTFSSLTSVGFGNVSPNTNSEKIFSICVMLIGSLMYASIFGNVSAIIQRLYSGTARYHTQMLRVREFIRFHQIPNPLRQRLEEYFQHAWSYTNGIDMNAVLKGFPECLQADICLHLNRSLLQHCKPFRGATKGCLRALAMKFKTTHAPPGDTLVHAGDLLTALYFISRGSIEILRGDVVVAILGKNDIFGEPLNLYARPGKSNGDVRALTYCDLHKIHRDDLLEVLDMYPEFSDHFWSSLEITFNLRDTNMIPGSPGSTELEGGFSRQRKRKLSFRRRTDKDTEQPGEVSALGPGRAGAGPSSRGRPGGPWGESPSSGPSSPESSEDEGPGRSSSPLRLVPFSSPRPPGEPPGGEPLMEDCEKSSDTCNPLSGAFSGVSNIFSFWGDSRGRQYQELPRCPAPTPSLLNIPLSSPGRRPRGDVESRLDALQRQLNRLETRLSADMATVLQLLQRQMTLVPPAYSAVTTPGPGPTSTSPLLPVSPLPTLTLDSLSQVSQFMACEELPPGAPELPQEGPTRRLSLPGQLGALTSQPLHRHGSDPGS", "assay": "Binding assay", "conditions": "smilagenin 1 μM", "summary_of_the_method": "as §4"}, "[6]": {"target": "T2, G Protein-Coupled Receptor GPR8 (Homo sapiens, UniProt P48146)", "T2 construct": "host or cells: tissue or cell homogenate (not specified)", "assay": "Binding assay", "conditions": "smilagenin 1 μM", "summary_of_the_method": "as §4"}, "Adrenomedullin AM2": {"target": "Adrenomedullin AM2 (Homo sapiens, UniProt O60896+Q16602)", "sequence (Q16602 23-461)": "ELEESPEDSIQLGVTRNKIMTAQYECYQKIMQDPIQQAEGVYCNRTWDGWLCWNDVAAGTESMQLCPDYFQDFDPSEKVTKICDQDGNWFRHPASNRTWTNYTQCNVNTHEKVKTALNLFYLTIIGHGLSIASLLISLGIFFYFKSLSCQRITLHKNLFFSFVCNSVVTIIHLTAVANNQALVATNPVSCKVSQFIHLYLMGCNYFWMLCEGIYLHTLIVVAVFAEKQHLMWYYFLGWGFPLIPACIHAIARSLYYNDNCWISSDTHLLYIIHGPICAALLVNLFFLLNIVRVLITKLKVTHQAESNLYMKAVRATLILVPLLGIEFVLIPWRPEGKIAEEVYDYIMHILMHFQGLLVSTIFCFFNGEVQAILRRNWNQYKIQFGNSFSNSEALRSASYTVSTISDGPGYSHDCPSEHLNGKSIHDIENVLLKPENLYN", "sequence (O60896 24-148 partner)": "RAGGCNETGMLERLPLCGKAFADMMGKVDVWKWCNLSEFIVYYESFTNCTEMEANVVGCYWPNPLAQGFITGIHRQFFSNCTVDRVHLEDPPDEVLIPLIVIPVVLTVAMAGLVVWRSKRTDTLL", "assay": "Binding assay", "conditions": "smilagenin 1 μM", "summary_of_the_method": "as §4"}, "Prostanoid CRTH2": {"target": "Prostanoid CRTH2 (Homo sapiens, UniProt Q9Y5Y4)", "assay": "Binding assay", "conditions": "smilagenin 1 μM", "summary_of_the_method": "as §4"}, "Sigma σ1": {"target": "Sigma σ1 (Homo sapiens, UniProt Q99720)", "assay": "Binding assay", "conditions": "smilagenin 1 μM", "summary_of_the_method": "as §4"}, "Glutamate, NMDA, Glycine": {"target": "T3, Glutamate, NMDA, Glycine (Rattus norvegicus, UniProt P35439)", "T3 construct": "host or cells: tissue or cell homogenate (not specified)", "assay": "Binding assay", "conditions": "smilagenin 1 μM", "summary_of_the_method": "as §4"}, "Adrenomedullin AM1": {"target": "Adrenomedullin AM1 (Homo sapiens, UniProt O60895+Q16602)", "sequence (Q16602 23-461)": "as the sequence (Q16602 23-461) above", "sequence (O60895 43-175 partner)": "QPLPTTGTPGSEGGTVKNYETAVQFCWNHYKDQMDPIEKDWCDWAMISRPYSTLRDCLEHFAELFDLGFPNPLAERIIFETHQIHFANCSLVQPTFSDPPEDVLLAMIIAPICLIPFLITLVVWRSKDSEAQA", "assay": "Binding assay", "conditions": "smilagenin 1 μM", "summary_of_the_method": "as §4"}, "[7]": {"target": "5-Hydroxytryptamine, 5-HT5A (Homo sapiens, UniProt P47898)", "assay": "Binding assay", "conditions": "smilagenin 1 μM", "summary_of_the_method": "as §4"}, "Neuromedin U MNU1": {"target": "Neuromedin U MNU1 (Homo sapiens, UniProt Q9HB89)", "assay": "Binding assay", "conditions": "smilagenin 1 μM", "summary_of_the_method": "as §4"}, "Melanocortin MC1": {"target": "Melanocortin MC1 (Homo sapiens, UniProt Q01726)", "sequence (Q01726 whole entry)": "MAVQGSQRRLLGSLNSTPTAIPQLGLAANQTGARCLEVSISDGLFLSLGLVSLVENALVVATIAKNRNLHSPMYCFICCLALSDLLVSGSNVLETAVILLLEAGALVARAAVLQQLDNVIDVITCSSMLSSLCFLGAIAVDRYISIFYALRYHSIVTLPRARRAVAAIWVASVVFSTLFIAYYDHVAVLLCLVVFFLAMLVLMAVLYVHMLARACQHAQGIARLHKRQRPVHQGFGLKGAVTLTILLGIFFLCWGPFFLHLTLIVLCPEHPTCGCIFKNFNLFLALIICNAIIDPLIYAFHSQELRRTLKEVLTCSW", "assay": "Binding assay", "conditions": "smilagenin 1 μM", "summary_of_the_method": "as §4"}, "[8]": {"target": "Corticotropin Releasing Factor (CRF1) (Homo sapiens, UniProt P34998)", "assay": "Binding assay", "conditions": "smilagenin 1 μM", "summary_of_the_method": "as §4"}, "Bombesin BB1": {"target": "Bombesin BB1 (Homo sapiens, UniProt P28336)", "sequence (P28336 whole entry)": "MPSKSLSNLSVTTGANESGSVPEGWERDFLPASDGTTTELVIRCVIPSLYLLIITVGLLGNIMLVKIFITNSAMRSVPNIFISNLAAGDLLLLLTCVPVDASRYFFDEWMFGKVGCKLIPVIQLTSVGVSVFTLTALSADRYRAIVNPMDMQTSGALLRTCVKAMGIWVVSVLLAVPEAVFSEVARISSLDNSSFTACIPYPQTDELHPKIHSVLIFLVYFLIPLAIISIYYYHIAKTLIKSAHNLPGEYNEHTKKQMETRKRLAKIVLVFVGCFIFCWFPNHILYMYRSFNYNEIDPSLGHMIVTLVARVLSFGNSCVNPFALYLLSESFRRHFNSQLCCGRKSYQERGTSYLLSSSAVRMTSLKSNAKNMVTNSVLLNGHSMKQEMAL", "assay": "Binding assay", "conditions": "smilagenin 1 μM", "summary_of_the_method": "as §4"}, "[9]": {"target": "Transporter, Dopamine (DAT) (Homo sapiens, UniProt Q01959)", "sequence (Q01959 whole entry)": "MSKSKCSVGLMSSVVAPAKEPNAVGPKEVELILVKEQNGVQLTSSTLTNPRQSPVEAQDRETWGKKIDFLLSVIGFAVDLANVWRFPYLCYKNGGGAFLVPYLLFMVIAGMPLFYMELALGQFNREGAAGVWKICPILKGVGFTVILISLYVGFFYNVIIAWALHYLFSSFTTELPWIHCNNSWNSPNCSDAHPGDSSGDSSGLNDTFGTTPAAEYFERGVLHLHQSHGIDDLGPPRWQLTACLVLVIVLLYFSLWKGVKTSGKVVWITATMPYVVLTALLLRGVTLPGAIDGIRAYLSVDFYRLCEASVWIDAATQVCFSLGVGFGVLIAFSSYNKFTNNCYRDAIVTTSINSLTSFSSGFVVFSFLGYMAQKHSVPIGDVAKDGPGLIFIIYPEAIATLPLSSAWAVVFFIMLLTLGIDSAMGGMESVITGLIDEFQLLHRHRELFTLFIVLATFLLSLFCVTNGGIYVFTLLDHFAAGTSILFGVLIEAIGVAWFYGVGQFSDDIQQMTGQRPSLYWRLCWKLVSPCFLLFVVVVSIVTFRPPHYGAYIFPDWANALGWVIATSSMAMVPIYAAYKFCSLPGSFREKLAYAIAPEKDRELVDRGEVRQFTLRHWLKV", "assay": "Binding assay", "conditions": "smilagenin 1 μM", "summary_of_the_method": "as §4"}}, "data": [{"smiles": "C[C@@H]1CC[C@@]2(OC1)O[C@H]1C[C@H]3[C@@H]4CC[C@@H]5C[C@@H](O)CC[C@]5(C)[C@H]4CC[C@]3(C)[C@H]1[C@@H]2C", "note": "[Smilagenin, smilagenin]", "values": [{"measurement": "Neurite outgrowth (% of control)", "setting": "[1]", "value": "62.1 ± 7.0 % of control"}, {"measurement": "Number of TH positive neurones per field (% of control)", "setting": "[1]", "value": "57.1 ± 5.2 % of control"}, {"measurement": "GDNF concentration", "setting": "GDNF", "value": "6.6 ± 0.7", "unit": "pg/mL"}, {"measurement": "Effect (%)", "setting": "Transporter, Adenosine", "value": "NS (NS = No significant response. Significance was taken as ≧30% stimulation or inhibition)"}, {"measurement": "Effect (%)", "setting": "[2]", "value": "NS (NS = No significant response. Significance was taken as ≧30% stimulation or inhibition)"}, {"measurement": "Effect (%)", "setting": "[3]", "value": "NS (NS = No significant response. Significance was taken as ≧30% stimulation or inhibition)"}, {"measurement": "BDNF concentration", "setting": "BDNF", "value": "3.67 ± 0.05", "unit": "pg/mL"}, {"measurement": "DAT level ([I^125]-RTI binding in the striatum; nCi/g protein)", "setting": "[4]", "value": "69.7 ± 8.8", "unit": "nCi/g protein"}, {"measurement": "Effect (%)", "setting": "[5]", "value": "NS (NS = No significant response. Significance was taken as ≧30% stimulation or inhibition)"}, {"measurement": "Effect (%)", "setting": "Oestrogen (Erβ)", "value": "NS (NS = No significant response. Significance was taken as ≧30% stimulation or inhibition)"}, {"measurement": "Effect (%)", "setting": "Adensonine A3", "value": "NS (NS = No significant response. Significance was taken as ≧30% stimulation or inhibition)"}, {"measurement": "Effect (%)", "setting": "Bradykinin B1", "value": "NS (NS = No significant response. Significance was taken as ≧30% stimulation or inhibition)"}, {"measurement": "Effect (%)", "setting": "Endothelin ETB", "value": "NS (NS = No significant response. Significance was taken as ≧30% stimulation or inhibition)"}, {"measurement": "Effect (%)", "setting": "Neuropeptide Y Y1", "value": "NS (NS = No significant response. Significance was taken as ≧30% stimulation or inhibition)"}, {"measurement": "Effect (%)", "setting": "Potassium Channel HERG", "value": "NS (NS = No significant response. Significance was taken as ≧30% stimulation or inhibition)"}, {"measurement": "Effect (%)", "setting": "[6]", "value": "NS (NS = No significant response. Significance was taken as ≧30% stimulation or inhibition)"}, {"measurement": "Effect (%)", "setting": "Adrenomedullin AM2", "value": "NS (NS = No significant response. Significance was taken as ≧30% stimulation or inhibition)"}, {"measurement": "Effect (%)", "setting": "Prostanoid CRTH2", "value": "NS (NS = No significant response. Significance was taken as ≧30% stimulation or inhibition)"}, {"measurement": "Effect (%)", "setting": "Sigma σ1", "value": "NS (NS = No significant response. Significance was taken as ≧30% stimulation or inhibition)"}, {"measurement": "Effect (%)", "setting": "Glutamate, NMDA, Glycine", "value": "NS (NS = No significant response. Significance was taken as ≧30% stimulation or inhibition)"}, {"measurement": "Effect (%)", "setting": "Adrenomedullin AM1", "value": "NS (NS = No significant response. Significance was taken as ≧30% stimulation or inhibition)"}, {"measurement": "Effect (%)", "setting": "[7]", "value": "NS (NS = No significant response. Significance was taken as ≧30% stimulation or inhibition)"}, {"measurement": "Effect (%)", "setting": "Neuromedin U MNU1", "value": "NS (NS = No significant response. Significance was taken as ≧30% stimulation or inhibition)"}, {"measurement": "Effect (%)", "setting": "Melanocortin MC1", "value": "NS (NS = No significant response. Significance was taken as ≧30% stimulation or inhibition)"}, {"measurement": "Effect (%)", "setting": "[8]", "value": "NS (NS = No significant response. Significance was taken as ≧30% stimulation or inhibition)"}, {"measurement": "Effect (%)", "setting": "Bombesin BB1", "value": "NS (NS = No significant response. Significance was taken as ≧30% stimulation or inhibition)"}, {"measurement": "Effect (%)", "setting": "[9]", "value": "NS (NS = No significant response. Significance was taken as ≧30% stimulation or inhibition)"}]}]}
